This is an account of results in patent publication US4678787A, “4H-1-benzopyran-4-ones and their sulfur containing analogs” (Warner-Lambert Company, priority 1985, dated 1987).

For experiment [1], the system named is exploratory locomotor activity in mice. Description: Inhibition of exploratory locomotor activity, mouse IP (McLean et al. screen). Type of experiment: in vivo. The settings on record: read-out: Inh. Loc. Act. (mouse IP) (ED50). The source says: (§1) All compounds shown in the following Table 1 are active in laboratory tests that have been useful as predictors of antipsychotic efficacy (e.g., treatment of schizophrenia). Among these tests described by J. R. McLean, R. B. Parker, and L. L. Coughenour in Pharmacol. Biochem. Behav. 1978 (8) 97, is one which screens for compounds that decrease exploratory locomotor activity in mice and rats without causing ataxia. […] All known antipsychotic agents are active in this test. Our compounds are also active at doses as low as 0.35 mg/kg.

Experiment [2] deals with exploratory locomotor activity in rats. Description: Inhibition of exploratory locomotor activity, rat PO (McLean et al. screen). It is filed as in vivo. The following applies: read-out: Inh. Loc. Act. (rat PO) (ED50).
Source text: as §1

The next experiment deals with synthesis of dopamine. Kind of experiment: Dopamine synthesis in rats treated with gamma-butyrolactone (GBL). Type of experiment: in vivo, rat.

Usually ED50 stands for the dose at which the effect has come halfway, by size or by number of responders. In the case of `O=c1ccoc2cc(OCCCN3CC=C(c4ccccc4)CC3)ccc12` [compound 1, 7-[3-(4-Phenyl-1,2,3,6-tetrahydro-1-pyridyl)propoxy]-4H-1-benzopyran-4-one], the ED50 in experiment [1] was found to be 0.7 mg/kg; in experiment [2], 29.5 mg/kg. Besides, in the experiment with synthesis of dopamine, the synthesis of dopamine result was “inhibition of the synthesis of dopamine”. Consider `O=c1ccoc2cc(OCCCN3CCN(c4ccccc4)CC3)ccc12` [compound 2, 7-[3-(4-phenylpiperazinyl)propoxy]-4H-1-benzopyran-4-one], for which the ED50 in experiment [1] amounted to 2.4 mg/kg; in experiment [2] it was 4.3 mg/kg. In the same order, the values of `O=c1ccoc2cc(OCCCN3CCN(c4ccc(Cl)cc4)CC3)ccc12` [compound 3] are 11.1 mg/kg and 18.6 mg/kg. As for `Cc1cccc(N2CCN(CCCOc3ccc4c(=O)ccoc4c3)CC2)c1C` [compound 4], the figures for the ED50 in experiment [1] and in experiment [2] were 11.2 mg/kg and 13.2 mg/kg, respectively.

For `O=c1ccoc2cc(OCCCN3CCN(c4cccc(Cl)c4)CC3)ccc12` [compound 5], the figures for the ED50 in experiment [1] and in experiment [2] were 7.7 mg/kg and 8.5 mg/kg, respectively. With `COc1ccccc1N1CCN(CCCOc2ccc3c(=O)ccoc3c2)CC1` [compound 6], the ED50 in experiment [1] was 7.7 mg/kg; in experiment [2] it was more than 30 mg/kg. In the same order, the values of `O=c1ccoc2cc(OCCCN3CCC(c4ccccc4)CC3)ccc12` [compound 7, 7-[3-(4-Phenyl-1-piperidinyl)propoxy]-4H-1-benzopyran-4-one] are 14.8 mg/kg and more than 30 mg/kg. In the same order, the values of `Cc1ccccc1N1CCN(CCCOc2ccc3c(=O)ccoc3c2)CC1` [compound 8] are 2 mg/kg and 30 mg/kg.

Take `Cc1cccc(N2CCN(CCCOc3ccc4c(=O)ccoc4c3)CC2)c1` [compound 9]: the ED50 was determined as 5.4 mg/kg in experiment [1] and 4.8 mg/kg in experiment [2].

`Cc1ccc(N2CCN(CCCOc3ccc4c(=O)ccoc4c3)CC2)cc1` [compound 10]: the ED50 in experiment [1] worked out at 6.1 mg/kg; in experiment [2], 22.3 mg/kg.

As to `O=c1ccoc2cc(OCCCN3CCN(c4ccc(F)cc4)CC3)ccc12` [compound 11], the values for the ED50 in experiment [1] and in experiment [2] were 7 mg/kg and 7.1 mg/kg, respectively.

In the case of `O=c1ccoc2cc(OCCCN3CCN(c4ccccn4)CC3)ccc12` [compound 12], the ED50 is 5 to 6 mg/kg in experiment [1] and 1.7 mg/kg in experiment [2]. With `O=c1ccoc2cc(OCCCN3CCN(c4ccccc4Cl)CC3)ccc12` [compound 13, 7-[3-(4-(2-Chlorophenyl)-1-piperazinyl)propoxy]-4H-1-benzopyran-4-one], the ED50 in experiment [1] is more than 30 mg/kg. With `O=c1ccoc2cc(OCCCN3CCN(c4ccc(Cl)c(Cl)c4)CC3)ccc12` [compound 14], the ED50 in experiment [1] is 14 to 15 mg/kg; in experiment [2] it was 17.8 mg/kg. `COc1ccc(N2CCN(CCCOc3ccc4c(=O)ccoc4c3)CC2)cc1` [compound 15]: the ED50 in experiment [1] was 30 mg/kg; in experiment [2] it was more than 30 mg/kg.

Consider `O=c1ccoc2cc(OCCCN3CCN(c4cccc(O)c4)CC3)ccc12` [compound 16], for which the median effective dose (ED50) in experiment [1] is more than 30 mg/kg. `Cc1ccc(N2CCN(CCCOc3ccc4c(=O)ccoc4c3)CC2)cc1C` [compound 17]: the ED50 in experiment [1] was 3 mg/kg; in experiment [2] it was 7.3 mg/kg.

For `O=c1ccoc2cccc(OCCCN3CCN(c4ccccc4)CC3)c12` [compound 18, 5-3-(4-phenyl-1-piperazinyl)propoxyl-4H-1-benzopyran-4-one], the results for the ED50 in experiment [1] and in experiment [2] were 13.3 mg/kg and 15.6 mg/kg, respectively. As to `O=c1ccoc2ccc(OCCCCN3CCN(c4ccccc4)CC3)cc12` [compound 19, 6-[4-(4-phenyl-1-piperazinyl)butoxy]-4H-1-benzopyran-4-one], the values for the ED50 in experiment [1] and in experiment [2] were 3 mg/kg and 1.5 mg/kg, respectively. The like results for `O=c1ccoc2cc(OCCCCN3CCN(c4ccccc4)CC3)ccc12` [compound 20, 7-[4-(4-Phenyl-1-piperazinyl)butoxy]-4H-1-benzopyran-4-one] were, in that order, 0.35 mg/kg and 1.9 mg/kg. The like results for `O=c1ccoc2cc(OCCCN3CCN(c4ncccn4)CC3)ccc12` [compound 21] were, in that order, 23.7 mg/kg and more than 30 mg/kg.
